According to ChEMBL document CHEMBL1123635, “Angiotensin-converting enzyme inhibitors: perhydro-1,4-thiazepin-5-one derivatives” (J Med Chem, 1987):

Molecular target: T1, Angiotensin-converting enzyme (Oryctolagus cuniculus, UniProt P12822)
T1 sequence (P12822 whole entry): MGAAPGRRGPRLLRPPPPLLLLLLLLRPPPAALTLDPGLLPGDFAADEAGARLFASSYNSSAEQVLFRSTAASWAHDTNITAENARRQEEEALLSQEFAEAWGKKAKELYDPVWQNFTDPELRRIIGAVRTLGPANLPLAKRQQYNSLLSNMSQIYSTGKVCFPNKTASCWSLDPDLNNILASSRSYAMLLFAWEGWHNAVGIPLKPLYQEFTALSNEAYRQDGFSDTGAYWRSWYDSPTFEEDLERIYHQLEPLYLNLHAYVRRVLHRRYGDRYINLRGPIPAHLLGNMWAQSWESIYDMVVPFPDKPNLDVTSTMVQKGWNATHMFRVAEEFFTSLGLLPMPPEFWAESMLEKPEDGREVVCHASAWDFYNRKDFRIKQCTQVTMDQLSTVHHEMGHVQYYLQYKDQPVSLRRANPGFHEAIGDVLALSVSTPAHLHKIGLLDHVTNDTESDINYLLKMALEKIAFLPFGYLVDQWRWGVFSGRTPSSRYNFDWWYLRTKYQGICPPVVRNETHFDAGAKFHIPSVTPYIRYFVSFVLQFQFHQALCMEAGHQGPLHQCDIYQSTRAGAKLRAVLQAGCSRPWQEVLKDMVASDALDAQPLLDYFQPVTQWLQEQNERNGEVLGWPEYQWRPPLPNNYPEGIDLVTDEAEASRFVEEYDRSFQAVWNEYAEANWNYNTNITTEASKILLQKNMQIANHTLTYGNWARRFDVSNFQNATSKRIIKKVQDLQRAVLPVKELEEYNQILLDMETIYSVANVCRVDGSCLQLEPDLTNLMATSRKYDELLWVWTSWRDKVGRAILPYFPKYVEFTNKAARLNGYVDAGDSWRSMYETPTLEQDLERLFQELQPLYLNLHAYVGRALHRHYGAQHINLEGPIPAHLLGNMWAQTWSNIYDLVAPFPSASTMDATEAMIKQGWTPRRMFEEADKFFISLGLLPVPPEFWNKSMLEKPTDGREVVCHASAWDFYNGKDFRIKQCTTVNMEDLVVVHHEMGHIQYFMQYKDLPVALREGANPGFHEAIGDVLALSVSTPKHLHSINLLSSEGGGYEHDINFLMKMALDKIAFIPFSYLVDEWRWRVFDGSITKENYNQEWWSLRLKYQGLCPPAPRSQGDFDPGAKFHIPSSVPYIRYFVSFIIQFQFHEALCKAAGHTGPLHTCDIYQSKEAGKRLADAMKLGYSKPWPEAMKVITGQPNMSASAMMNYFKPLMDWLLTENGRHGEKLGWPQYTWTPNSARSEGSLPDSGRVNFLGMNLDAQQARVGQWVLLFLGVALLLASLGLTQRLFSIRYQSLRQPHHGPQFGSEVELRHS
Assay: Inhibitory activity against rabbit lung Angiotensin I converting enzyme with 5 mM hippuryl-histidyl-leucine as substrate

Row | SMILES | IC50
1 | O=C(O)CN1C(=O)[C@@H](N[C@@H](CCc2ccccc2)C(=O)O)CSC[C@@H]1c1ccccc1 | 78.2 nM
2 | O=C(O)CN1C(=O)[C@@H](N[C@@H](CCc2ccccc2)C(=O)O)CSC[C@H]1c1ccccc1 | 3.4 nM
3 | O=C(O)CN1C(=O)[C@@H](N[C@@H](CCc2ccccc2)C(=O)O)CSCC1c1cccs1 (some centres undefined) | 2.8 nM
4 | O=C(O)CN1C[C@H](c2cccs2)SC[C@H](N[C@@H](CCc2ccccc2)C(=O)O)C1=O | 64.7 nM

More lines, now with the values ahead:

Row | IC50 | SMILES
5 | 86.9 nM | O=C(O)CN1C[C@H](c2ccsc2)SC[C@H](N[C@@H](CCc2ccccc2)C(=O)O)C1=O
6 | 4.1 nM | O=C(O)CN1C[C@@H](c2ccsc2)SC[C@H](N[C@@H](CCc2ccccc2)C(=O)O)C1=O
7 | 3.7 nM | O=C(O)CN1C[C@@H](c2ccccc2)SC[C@H](N[C@@H](CCc2ccccc2)C(=O)O)C1=O
8 | 35.5 nM | O=C(O)CN1C[C@H](c2ccccc2)SC[C@H](N[C@@H](CCc2ccccc2)C(=O)O)C1=O
9 | 3.6 nM | O=C(O)CN1C[C@@H](c2cccs2)SC[C@H](N[C@@H](CCc2ccccc2)C(=O)O)C1=O [TEMOCAPRILAT]
